In patent US10144706B2 (BRISTOL-MYERS SQUIBB COMPANY, priority 2016, dated 2018) one finds IC50 data, which are given here for 20 molecules.

Each structure is given as a SMILES string. Where a name gives a salt, the structure may show the parent alone.

Broadly, the IC50 is the midpoint of a concentration-inhibition curve.

The target in one assay is T1, PD-1/PD-L1 interaction (PD-1-Ig / PD-L1-His) (Homo sapiens, UniProt Q9NZQ7).
T1 construct: hPDL1(18-239)-TVMV-His; TVMV protease site linker (C); made in house; host or cells: HEK293T
T1 sequence (Q9NZQ7 with tags, fused parts or gaps): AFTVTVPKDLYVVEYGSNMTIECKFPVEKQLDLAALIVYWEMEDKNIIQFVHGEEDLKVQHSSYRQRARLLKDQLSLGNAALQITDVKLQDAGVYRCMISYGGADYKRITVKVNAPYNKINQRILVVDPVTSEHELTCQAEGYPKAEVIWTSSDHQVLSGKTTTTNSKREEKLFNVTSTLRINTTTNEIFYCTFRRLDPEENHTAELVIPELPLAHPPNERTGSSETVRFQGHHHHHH
The assay is described as follows: PD-1/PD-L1 Homogenous Time-Resolved Fluorescence (HTRF) binding assay. The conditions noted are these: IC50 range class; PD-L1-His 10 nM, PD-1-Ig 20 nM; read-out: Range or IC50. The procedure, abridged: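 Human PD-L1-His (10 nM final) was pre-incubated with inhibitor for 15 min, then PD-1-Ig (20 nM final) was added for a further 15 min in dPBS with 0.1% BSA and 0.05% Tween-20. Binding was detected by HTRF using Eu-cryptate anti-Ig (1 nM) and APC anti-His (20 nM).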
A general note: TR-FRET usually uses a lanthanide donor and a delayed reading to cut background.
Take `Cc1c(NC(=O)NCCN2CC[C@@H](O)C2)cccc1-c1cccc(OCCCN2CC[C@@H](O)C2)c1C` [Example 3017, 1-(2-((R)-3-hydroxypyrrolidin-1-yl)ethyl)-3-(3′-(3-((R)-3-hydroxypyrrolidin-1-yl)propoxy)-2,2′-dimethyl-[1,1′-biphenyl]-3-yl)urea]: the IC50 lay in the range of 1000 to 10000 nM.
Take `Cc1c(NCCCN2CC[C@@H](O)C2)cccc1-c1cccc(OCCCN2CC[C@@H](O)C2)c1C` [Example 3018, (R)-1-(3-((3′-(3-((R)-3-hydroxypyrrolidin-1-yl)propoxy)-2,2′-dimethyl-[1,1′-biphenyl]-3-yl)amino)propyl)pyrrolidin-3-ol]: the IC50 was 90.1 to 1000 nM.
Regarding `Cc1c(OCCCN2CC[C@@H](O)C2)cccc1-c1cccc(S(=O)(=O)NCCC(=O)O)c1C` [Example 3020, (R)-3-(3′-(3-(3-hydroxypyrrolidin-1-yl)propoxy)-2,2′-dimethyl-[1,1′-biphenyl]-3-ylsulfonamido)propanoic acid], the concentration for half-maximal inhibition (IC50) fell in the range of 1000 to 10000 nM.
For `Cc1ccccc1-c1ccc(OCCCN2CC[C@H](O)C2)c(OCCCN2CC[C@H](O)C2)c1` [Example 3021, (3S,3′S)-1,1′-(((2′-methyl-[1,1′-biphenyl]-3,4-diyl)bis(oxy))bis(propane-3,1-diyl))bis(pyrrolidin-3-ol)], the concentration for half-maximal inhibition (IC50) is above 10000 nM.
On to `Cc1c(OCCCN2CC[C@@H](O)C2)cccc1-c1ccc(OCCCN2CC[C@H](O)C2)c(OCCCN2CC[C@H](O)C2)c1` [Example 3022, (3S,3′S)-1,1′-(((3′-(3-((R)-3-hydroxypyrrolidin-1-yl)propoxy)-2′-methyl-[1,1′-biphenyl]-3,4-diyl)bis(oxy))bis(propane-3,1-diyl))bis(pyrrolidin-3-ol)], for which the 50% inhibitory concentration (IC50) is above 10000 nM.
Same read-out and setting: the value for `Cc1c(OCCCN2CC[C@@H](O)C2)cccc1-c1cccc(OCCCN2CC[C@@H](O)C2)c1` [Example 3023, (3R,3′R)-1,1′-(((2-methyl-[1,1′-biphenyl]-3,3′-diyl)bis(oxy))bis(propane-3,1-diyl))bis(pyrrolidin-3-ol)] was 90.1 to 1000 nM; that for `Cc1c(OCCCN2CC[C@@H](O)C2)cccc1-c1cccc(OCCCN2CC[C@@H](O)C2)c1C#N` [Example 3025, 3,3′-bis(3-((R)-3-hydroxypyrrolidin-1-yl)propoxy)-2′-methyl-[1,1′-biphenyl]-2-carbonitrile] was 90.1 to 1000 nM; that for `Cc1c(OCCCN2CC[C@@H](O)C2)cccc1-c1cccc(OCCCN2CC[C@@H](O)C2)c1C(F)(F)F` [Example 3026, (3R,3′R)-1,1′-(((2-methyl-2′-(trifluoromethyl)-[1,1′-biphenyl]-3,3′-diyl)bis(oxy))bis(propane-3,1-diyl))bis(pyrrolidin-3-ol), 2 TFA] was 90.1 to 1000 nM.
`Cc1c(OCCCN2CC[C@@H](O)C2)cccc1-c1cccc(OCCCc2ccccc2)c1` [Example 3027, (R)-1-(3-((2-methyl-3′-(3-phenylpropoxy)-[1,1′-biphenyl]-3-yl)oxy)propyl)pyrrolidin-3-ol]: the half-maximal inhibitory concentration (IC50) lay in the range of 1000 to 10000 nM.
The same measure, in the same setting: the value for `Cc1c(OCCCN2CC[C@@H](O)C2)cccc1-c1cccc(OCCCN2CCC(O)(c3ccccc3)C2)c1C` (stereo partly drawn) [Example 3028, 1-(3-((3′-(3-((R)-3-hydroxypyrrolidin-1-yl)propoxy)-2,2′-dimethyl-[1,1′-biphenyl]-3-yl)oxy)propyl)-3-phenylpyrrolidin-3-ol, 2 TFA] was 20.1 to 90 nM; that for `Cc1c(OCCCN2CC[C@@H](O)C2)cccc1-c1cccc(OCC2CCCN(C)C2)c1C` (stereo partly drawn) [Example 3029, (3R)-1-(3-((2,2′-dimethyl-3′-((1-methylpiperidin-3-yl)methoxy)-[1,1′-biphenyl]-3-yl)oxy)propyl)pyrrolidin-3-ol] was 0.04 to 20 nM; that for `O[C@@H]1CCN(CCC2COc3ccc(-c4ccc5c(c4)OC(CCN4CC[C@@H](O)C4)CO5)cc3O2)C1` (stereo partly drawn) [Example 3032, (3R,3′R)-1,1′-((2,2′,3,3′-tetrahydro-[6,6′-bibenzo[b][1,4]dioxine]-3,3′-diyl)bis(ethane-2,1-diyl))bis(pyrrolidin-3-ol)] was 20.1 to 90 nM.
Same read-out and setting: the value for `Cc1c(OCCCN2CC[C@@H](O)C2)cccc1-c1cccc(OCc2cccc(N)c2)c1C` [Example 3033, (R)-1-(3-((3′-((3-aminobenzyl)oxy)-2,2′-dimethyl-[1,1′-biphenyl]-3-yl)oxy)propyl)pyrrolidin-3-ol] was 1000 to 10000 nM; that for `Cc1c(OCCCN2CC[C@@H](O)C2)cccc1-c1cccc(OCCCN2CC[C@@H](F)C2)c1C` [Example 3035, (R)-1-(3-((3′-(3-((R)-3-fluoropyrrolidin-1-yl)propoxy)-2,2′-dimethyl-[1,1′-biphenyl]-3-yl)oxy)propyl)pyrrolidin-3-ol] was 0.04 to 20 nM; that for `Cc1cc(OCc2cccc(-c3cccc(COc4cc(C)c(CNC(C)(CO)CO)cc4C)c3C)c2C)c(C)cc1CNC(C)(CO)CO` [Example 5001, 2,2′-((((((2,2′-dimethyl-[1,1′-biphenyl]-3,3′-diyl)bis(methylene))bis(oxy))bis(2,5-dimethyl-4,1-phenylene))bis(methylene))bis(azanediyl))bis(2-methylpropane-1,3-diol)] was 0.04 to 20 nM.
Take `Cc1cc(OCc2cccc(-c3cccc(COc4cc(C)c(CN5CCCC[C@H]5C(=O)O)cc4C)c3C)c2C)c(C)cc1CN1CCCC[C@H]1C(=O)O` [Example 5002, (2S,2′S)-1,1′-(((((2,2′-dimethyl-[1,1′-biphenyl]-3,3′-diyl)bis(methylene))bis(oxy))bis(2,5-dimethyl-4,1-phenylene))bis(methylene))bis(piperidine-2-carboxylic acid)]: the concentration for half-maximal inhibition (IC50) lay within 20.1 to 90 nM.
Still for that read-out and setting: the value for `Cc1c(COc2cc(OCc3cc(F)cc(F)c3)c(CNC(CO)CO)cc2Cl)cccc1-c1cccc(COc2cc(OCc3cc(F)cc(F)c3)c(CNC(CO)CO)cc2Cl)c1C` [Example 5003, 2,2′-((((((2,2′-dimethyl-[1,1′-biphenyl]-3,3′-diyl)bis(methylene))bis(oxy))bis(5-chloro-2-((3,5-difluorobenzyl)oxy)-4,1-phenylene))bis(methylene))bis(azanediyl))bis(propane-1,3-diol)] was 90.1 to 1000 nM.
For the molecule `Cc1cc(OCc2cccc(-c3cccc(COc4cc(C)c(CNC(CO)CO)cc4C)c3C)c2C)c(C)cc1CNC(CO)CO` [Example 5004, 2,2′-((((((2,2′-dimethyl-[1,1′-biphenyl]-3,3′-diyl)bis(methylene))bis(oxy))bis(2,5-dimethyl-4,1-phenylene))bis(methylene))bis(azanediyl))bis(propane-1,3-diol)], the IC50 lay in the range of 0.04 to 20 nM.

The same assay, now with this note: numeric IC50; PD-L1-His 10 nM, PD-1-Ig 20 nM; read-out: Range or IC50.
For the molecule `Cc1c(OCCCN2CC[C@@H](O)C2)cccc1-c1cccc(OCc2cccc(C#N)c2)c1C` [Example 3019, (R)-3-(((3′-(3-(3-hydroxypyrrolidin-1-yl)propoxy)-2,2′-dimethyl-[1,1′-biphenyl]-3-yl)oxy)methyl)benzonitrile], the IC50 turned out to be 106 nM.
Same read-out and setting: for `Cc1c(OCCCN2CC[C@@H](O)C2)cccc1-c1cccc(OCCCN2CC[C@@H](O)C2)c1Cl` [Example 3024, (3R,3′R)-1,1′-(((2-chloro-2′-methyl-[1,1′-biphenyl]-3,3′-diyl)bis(oxy))bis(propane-3,1-diyl))bis(pyrrolidin-3-ol)] the value was 12 nM.
